Laboratory results published in patent US12252524B2, “GIP/GLP1 co-agonist compounds” (Eli Lilly and Company, priority 2018, dated 2025).
Like-named read-outs stand apart in the source and are kept apart here. Numbered stars: 1 amine (or outer) side, 2 acyl side, 3 side chain; on linkers, the order of the positions; unused ones are H or OH. Square brackets hold non-standard residues; d marks the D form. Side chains are listed from the residue outwards. Peptide text beside a SMILES is read from it. * marks the point of attachment. C20 diacid = O=C(O)CCCCCCCCCCCCCCCCCCC(=O)*; C18 diacid = O=C(O)CCCCCCCCCCCCCCCCC(=O)*; γGlu = O=C(O)[C@H](CCC(=O)[*:2])N[*:1]; αMeL = CC(C)C[C@](C)(N)C(=O)O; Orn = NCCC[C@H](N)C(=O)O; AEEA = NCCOCCOCC(=O)O; Aib = CC(C)(N)C(=O)O

Experiments:
[1] = target: T1, human Gcg receptor (Homo sapiens, UniProt P47871); experiment: [125I]-Glucagon binding (SPA), human Gcg receptor
T1 construct: expressed in transfected cells; crude membranes
Outline: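 Crude membranes from cells expressing the receptor, prepared by hypotonic lysis in 50 mM Tris HCl pH 7.5 with protease inhibitors, homogenization and differential centrifugation, were used in a WGA-bead SPA. Binding buffer: 25 mM HEPES pH 7.4, 2.5 mM CaCl2, 1 mM MgCl2, bacitracin, Tween-20.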

[2] = target: T2, human GIP receptor (Homo sapiens, UniProt P48546); experiment: [125I]-GIP binding (SPA), human GIP receptor
T2 construct: expressed in transfected cells; crude membranes
T2 sequence (P48546 22-466): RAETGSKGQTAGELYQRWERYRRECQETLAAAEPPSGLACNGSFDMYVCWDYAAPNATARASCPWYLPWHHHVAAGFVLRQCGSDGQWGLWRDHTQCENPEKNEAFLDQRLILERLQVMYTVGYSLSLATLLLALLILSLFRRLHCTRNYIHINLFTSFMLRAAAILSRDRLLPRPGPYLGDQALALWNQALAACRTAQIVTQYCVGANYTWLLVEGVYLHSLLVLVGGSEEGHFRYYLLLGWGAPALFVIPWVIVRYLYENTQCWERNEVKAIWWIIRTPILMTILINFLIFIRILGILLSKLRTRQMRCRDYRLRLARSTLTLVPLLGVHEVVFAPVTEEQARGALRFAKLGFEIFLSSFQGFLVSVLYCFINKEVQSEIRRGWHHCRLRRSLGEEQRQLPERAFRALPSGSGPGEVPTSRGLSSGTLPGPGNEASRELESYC

[3] = target: human GLP-1 receptor (GLP-1R) (Homo sapiens, UniProt P43220); experiment: cAMP pharmacological functional assay in presence of casein, hGLP-1R; format: cell-based
[4] = target: T3, gastric inhibitory peptide receptor (GIPR) (Homo sapiens, UniProt P48546); experiment: cAMP pharmacological functional assay in presence of casein, hGIPR; format: cell-based
T3 sequence (P48546 22-466): T2 sequence (P48546 22-466)

[5] = target: T4, human GLP-1R (Homo sapiens, UniProt P43220); experiment: [125I]-GLP-1 binding (SPA), human GLP-1 receptor; parameters: expressed in transfected cells; crude membranes
Outline: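 Frozen cell pellets are lysed on ice in hypotonic Tris buffer, pH 7.5, homogenized, and centrifuged to a membrane pellet resuspended at about 1 to 3 mg/mL. Binding is then measured in HEPES-based buffer at pH 7.4, and curves are fitted to give IC50 and Ki.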

[6] = target: T4, human GLP-1R; experiment: GLP-1R CHO cell β-arrestin recruitment assay; format: cell-based; parameters: host or cells: CHO-K1 PathHunter cells, assay-ready frozen; conditions: for hGLP1R B-Arrestin2 % Top: normalized to GLP-1 maximum control
Outline: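 PathHunter CHO-K1 cells with ProLink-tagged human GLP-1R and enzyme-acceptor-tagged β-arrestin-2 treated with serially diluted peptides in assay buffer containing 0.1% hydrolyzed casein, 90 min at 37 °C.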

[7] = target: T4, human GLP-1R; experiment: GLP-1R HEK293 cell membrane [35S]GTPγS binding assay; format: biochemical; parameters: expressed in transfected cells; host or cells: HEK293 cells expressing human GLP-1R; membranes
Outline: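 Membranes from HEK293 cells expressing the receptor incubated with peptide and […] [35S]GTPγS in HEPES pH 7.4 buffer with NaCl, MgCl2, saponin and BSA, 30 min at room temperature. Gαs-bound label captured by anti-Gαs antibody/SPA beads and counted; EC50 from four-parameter logistic fit.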

[8] = read-out: hGLcgR Ki, nM (SEM, n)
[9] = read-out: hGIPR Ki, nM (SEM, n)
[10] = HEK293 cells expressing hGLP-1R, 0.1% Casein, geometric mean, read-out: hGLP1R cAMP Rel EC50 nM (SEM, n)
[11] = HEK293 cells expressing hGIPR, 0.1% Casein, geometric mean, read-out: hGIPR cAMP Rel EC50 nM (SEM, n)
[12] = read-out: hGLP1R Ki, (nM) (SEM, n)
[13] = CHO-K1 cells, PathHunter β-arrestin-2 recruitment, 0.1% casein, read-out: hGLP1R B-Arrestin2 Rel EC50 uM (SEM, n)
[14] = HEK293 cell membranes expressing human GLP-1R, [35S]GTPγS binding, read-out: hGLP1R GTPgS Rel EC50 nM (SEM, n)

T4 sequence (P43220 24-463): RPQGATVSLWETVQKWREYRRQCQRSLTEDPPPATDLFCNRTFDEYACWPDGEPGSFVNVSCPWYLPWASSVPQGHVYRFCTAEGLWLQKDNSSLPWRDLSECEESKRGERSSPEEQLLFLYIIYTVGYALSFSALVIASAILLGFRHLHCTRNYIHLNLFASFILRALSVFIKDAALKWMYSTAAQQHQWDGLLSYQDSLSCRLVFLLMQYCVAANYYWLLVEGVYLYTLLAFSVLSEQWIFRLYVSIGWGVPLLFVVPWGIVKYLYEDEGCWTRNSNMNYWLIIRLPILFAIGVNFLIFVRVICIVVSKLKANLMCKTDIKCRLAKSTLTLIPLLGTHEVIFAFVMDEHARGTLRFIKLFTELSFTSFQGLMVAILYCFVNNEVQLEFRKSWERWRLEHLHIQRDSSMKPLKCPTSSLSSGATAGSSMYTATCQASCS
human GLP-1 receptor (GLP-1R), sequence (P43220 24-463): as above
T1 sequence (P47871 26-477): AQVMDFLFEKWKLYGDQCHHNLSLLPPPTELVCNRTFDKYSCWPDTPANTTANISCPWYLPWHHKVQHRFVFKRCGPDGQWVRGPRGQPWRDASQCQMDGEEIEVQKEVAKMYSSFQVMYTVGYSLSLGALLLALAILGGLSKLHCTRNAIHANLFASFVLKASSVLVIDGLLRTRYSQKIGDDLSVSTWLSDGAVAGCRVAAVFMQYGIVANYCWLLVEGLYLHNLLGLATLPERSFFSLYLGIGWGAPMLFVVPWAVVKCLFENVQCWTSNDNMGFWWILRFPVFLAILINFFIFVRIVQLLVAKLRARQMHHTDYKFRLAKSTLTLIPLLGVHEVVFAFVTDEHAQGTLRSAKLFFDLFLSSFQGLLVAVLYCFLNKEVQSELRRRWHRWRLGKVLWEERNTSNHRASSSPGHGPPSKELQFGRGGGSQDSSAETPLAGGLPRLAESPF

SMILES: CC[C@H](C)[C@H](NC(=O)[C@H](CC(C)C)NC(=O)[C@H](Cc1ccc(O)cc1)NC(=O)[C@@H](CCC(=O)O)NC(=O)[C@@H](NC(=O)[C@H](Cc1ccccc1)NC(=O)[C@H](C)NC(=O)C(C)(C)NC(=O)[C@H](CCC(N)=O)NC(=O)[C@H](C)NC(=O)[C@H](CCCCNC(=O)COCCOCCNC(=O)COCCOCCNC(=O)CC[C@H](NC(=O)CCCCCCCCCCCCCCCCC(=O)O)C(=O)O)NC(=O)[C@H](CCCN)NC(=O)[C@H](CC(=O)O)NC(=O)[C@H](CC(C)C)NC(=O)[C@](C)(CC(C)C)NC(=O)[C@@H](NC(=O)[C@H](CO)NC(=O)[C@H](Cc1ccc(O)cc1)NC(=O)[C@H](CC(=O)O)NC(=O)[C@H](CO)NC(=O)[C@@H](NC(=O)[C@H](Cc1ccccc1)NC(=O)[C@@H](NC(=O)CNC(=O)[C@H](CCC(=O)O)NC(=O)C(C)(C)NC(=O)[C@H](N)Cc1ccc(O)cc1)[C@@H](C)O)[C@@H](C)O)[C@@H](C)CC)[C@@H](C)CC)C(=O)N[C@@H](C)C(=O)NCC(=O)NCC(=O)N1CCC[C@H]1C(=O)N[C@@H](CO)C(=O)N[C@@H](CO)C(=O)NCC(=O)N[C@@H](C)C(=O)N1CCC[C@H]1C(=O)N1CCC[C@H]1C(=O)N1CCC[C@H]1C(=O)N[C@@H](CO)C(N)=O [Example 363] (H-[dY][Aib]EGTFTSDYSI[αMeL]LD[Orn]K([AEEA-AEEA-γGlu-C18 diacid])AQ[Aib]AFI[dE]YLIAGGPSSGAPPPS-NH2)
- Ki [1, 8]: > 1020 nM
- Ki [2, 9]: 0.17 nM
- EC50 [3, 10]: 0.208 nM
- EC50 [4, 11]: 0.145 nM
- Ki [5, 12]: 3.89 nM
- EC50 [6, 13]: 0.135 µM
- hGLP1R B-Arrestin2 % Top [6]: 22.1%
- EC50 [7, 14]: 0.943 nM

SMILES: CC[C@H](C)[C@H](NC(=O)[C@H](CC(C)C)NC(=O)[C@H](Cc1ccc(O)cc1)NC(=O)[C@H](CCC(=O)O)NC(=O)[C@@H](NC(=O)[C@H](Cc1ccccc1)NC(=O)[C@H](C)NC(=O)C(C)(C)NC(=O)[C@H](CCC(N)=O)NC(=O)[C@H](C)NC(=O)[C@H](CCCCNC(=O)COCCOCCNC(=O)COCCOCCNC(=O)CC[C@H](NC(=O)CCCCCCCCCCCCCCCCCCC(=O)O)C(=O)O)NC(=O)[C@H](CCC(=O)O)NC(=O)[C@H](CC(=O)O)NC(=O)[C@H](CC(C)C)NC(=O)[C@](C)(CC(C)C)NC(=O)[C@@H](NC(=O)[C@H](CO)NC(=O)[C@H](Cc1ccc(O)cc1)NC(=O)[C@H](CC(=O)O)NC(=O)[C@H](CO)NC(=O)[C@@H](NC(=O)[C@H](Cc1ccccc1)NC(=O)[C@@H](NC(=O)CNC(=O)[C@H](CCC(=O)O)NC(=O)C(C)(C)NC(=O)[C@@H](N)Cc1ccc(O)cc1)[C@@H](C)O)[C@@H](C)O)[C@@H](C)CC)[C@@H](C)CC)C(=O)N[C@@H](C)C(=O)NCC(=O)NCC(=O)N1CCC[C@H]1C(=O)N[C@@H](CO)C(=O)N[C@@H](CO)C(=O)NCC(=O)N[C@@H](C)C(=O)N1CCC[C@H]1C(=O)N1CCC[C@H]1C(=O)N1CCC[C@H]1C(=O)N[C@@H](CO)C(N)=O [Example 332] (H-Y[Aib]EGTFTSDYSI[αMeL]LDEK([AEEA-AEEA-γGlu-C20 diacid])AQ[Aib]AFIEYLIAGGPSSGAPPPS-NH2)
- Ki [1, 8]: 397 nM
- Ki [2, 9]: 0.0497 nM
- EC50 [3, 10]: 0.184 nM
- EC50 [4, 11]: 0.0745 nM
- Ki [5, 12]: 7.87 nM
- EC50 [6, 13]: 0.0171 µM
- hGLP1R B-Arrestin2 % Top [6]: 45.6%
- EC50 [7, 14]: 0.453 nM

SMILES: CC[C@H](C)[C@H](NC(=O)[C@H](CC(C)C)NC(=O)[C@H](Cc1ccc(O)cc1)NC(=O)[C@H](CCC(=O)O)NC(=O)[C@@H](NC(=O)[C@H](Cc1ccccc1)NC(=O)[C@H](C)NC(=O)C(C)(C)NC(=O)[C@H](CCC(N)=O)NC(=O)[C@H](C)NC(=O)[C@H](CCCCNC(=O)COCCOCCNC(=O)COCCOCCNC(=O)CC[C@H](NC(=O)CCCCCCCCCCCCCCCCCCC(=O)O)C(=O)O)NC(=O)[C@H](CCCCN)NC(=O)[C@H](CC(=O)O)NC(=O)[C@H](CC(C)C)NC(=O)[C@](C)(CC(C)C)NC(=O)[C@@H](NC(=O)[C@H](CO)NC(=O)[C@H](Cc1ccc(O)cc1)NC(=O)[C@H](CC(=O)O)NC(=O)[C@H](CO)NC(=O)[C@@H](NC(=O)[C@](C)(Cc1ccccc1F)NC(=O)[C@@H](NC(=O)CNC(=O)[C@H](CCC(=O)O)NC(=O)C(C)(C)NC(=O)[C@H](N)Cc1ccc(O)cc1)[C@@H](C)O)[C@@H](C)O)[C@@H](C)CC)[C@@H](C)CC)C(=O)N[C@@H](CCC(=O)O)C(=O)NCC(=O)NCC(=O)N1CCC[C@H]1C(=O)N[C@@H](CO)C(=O)N[C@@H](CO)C(=O)NCC(=O)N[C@@H](C)C(=O)N1CCC[C@H]1C(=O)N1CCC[C@H]1C(=O)N1CCC[C@H]1C(=O)N[C@@H](CO)C(N)=O [Example 336]
- Ki [1]: 17.1 nM
- Ki [2]: 0.0277 nM
- EC50 [3]: 0.0874 nM
- EC50 [4]: 0.0312 nM
- Ki [5]: 2.44 nM
- EC50 [6]: 0.00778 µM
- hGLP1R B-Arrestin2 % Top [6]: 82.5%
- EC50 [7]: 0.377 nM

SMILES: CC[C@H](C)[C@H](NC(=O)[C@H](CC(C)C)NC(=O)[C@H](Cc1ccc(O)cc1)NC(=O)[C@H](CCC(=O)O)NC(=O)[C@@H](NC(=O)[C@H](Cc1ccccc1)NC(=O)[C@H](C)NC(=O)C(C)(C)NC(=O)[C@H](CCC(N)=O)NC(=O)[C@H](C)NC(=O)[C@H](CCCCNC(=O)COCCOCCNC(=O)COCCOCCNC(=O)CC[C@H](NC(=O)CCCCCCCCCCCCCCCCC(=O)O)C(=O)O)NC(=O)[C@H](CCCCN)NC(=O)[C@H](CC(=O)O)NC(=O)[C@H](CC(C)C)NC(=O)[C@H](CC(C)C)NC(=O)[C@@H](NC(=O)[C@H](CO)NC(=O)[C@H](Cc1ccc(O)cc1)NC(=O)[C@H](CC(=O)O)NC(=O)[C@H](CO)NC(=O)[C@@H](NC(=O)[C@H](Cc1ccccc1)NC(=O)[C@@H](NC(=O)CNC(=O)[C@H](CCC(=O)O)NC(=O)C(C)(C)NC(=O)[C@@H](N)Cc1ccc(O)cc1)[C@@H](C)O)[C@@H](C)O)[C@@H](C)CC)[C@@H](C)CC)C(=O)N[C@@H](C)C(=O)NCC(=O)NCC(=O)N1CCC[C@H]1C(=O)N[C@@H](CO)C(=O)N[C@@H](CO)C(=O)NCC(N)=O [Example 272] (H-Y[Aib]EGTFTSDYSILLDKK([AEEA-AEEA-γGlu-C18 diacid])AQ[Aib]AFIEYLIAGGPSSG-NH2)
- Ki [1, 8]: 550 nM
- Ki [2, 9]: 0.0353 nM
- EC50 [3, 10]: 0.0435 nM
- EC50 [4, 11]: 0.0464 nM
- Ki [5, 12]: 1.22 nM
- EC50 ([6]; CHO-K1 cells, 0.1% w/v hydrolyzed Casein, read-out: hGLP1R B-Arrestin2 Rel EC50): > 12 µM
- EC50 [6, 13]: > 12 µM
- EC50 [7, 14]: 0.651 nM
